Reference: patent US20210355121A1, “FUSED TRICYCLIC KRAS INHIBITORS” (Incyte Corporation, priority 2020, published 2021)
Where two headings read alike, the source gives them in different places.

Assays:
KRAS G12C = KRAS G12C (Homo sapiens, UniProt P01116, G12C); assay: KRAS G12C GDP-GTP exchange assay (bodipy-GDP for GppNHp, with SOS1); format: biochemical; conditions: 2.5 nM bodipy-loaded KRAS G12C, 2 hours pre-incubation with inhibitor, 2 hours after GppNHp-SOS1; read-out: G12C_exchange (KRAS_G12C exchange assay IC50)
Procedure: The inhibitor potency of the exemplified compounds was determined in a fluorescence based guanine nucleotide exchange assay, which measures the exchange of bodipy-GDP (fluorescently labeled GDP) for GppNHp (Non-hydrolyzable GTP analog) to generate the active state of KRAS in the presence of SOS1 (guanine nucleotide exchange factor). Inhibitors were serially diluted in DMSO and a volume of 0.1 μL was transferred to the wells of a black low volume 384-well plate. 5 μL/well volume of bodipy-loaded KRAS G12C diluted to 5 nM in assay buffer (25 mM Hepes pH 7.5, 50 mM NaCl, 10 mM MgCl2 and 0.01% Brij-35) was added to the plate and pre-incubated with inhibitor for 2 hours at ambient temperature. Appropriate controls (enzyme with no inhibitor or with a G12C inhibitor (AMG-510)) were included on the plate. The exchange was initiated by the addition of a 5 μL/well volume containing 1 mM GppNHp and 300 nM SOS1 in assay buffer. The 10 μL/well reaction concentration of the bodipy-loaded KRAS G12C, GppNHp, and SOS1 were 2.5 nM, 500 uM, and 150 nM, respectively. The reaction plates were incubated at ambient temperature for 2 hours, a time estimated for complete GDP-GTP exchange in the absence of inhibitor. For the KRAS G12D and G12V mutants, similar guanine nucleotide exchange assays were used with 2.5 nM as final concentration for the bodipy loaded KRAS proteins and with 4 hours and 3 hours incubation after adding GppNHp-SOS1 mixture for G12D and G12V respectively. A cyclic peptide described to selectively bind G12D mutant (Sakamoto et al., BBRC 484.3 (2017), 605-611) or internal compounds with confirmed binding were used as positive controls in the assay plates. Fluorescence intensities were measured on a PheraStar plate reader instrument (BMG Labtech) with excitation at 485 nm and emission at 520 nm.
Either GraphPad prism or XLfit was used to analyze the data. The IC50 values were derived by fitting the data to a four parameter logistic equation producing a sigmoidal dose-response curve with a variable Hill coefficient. Prism equation: Y=Bottom+(Top−Bottom)/(1+10^((Log IC50−X)*Hill slope)); XLfit equation: Y=(A+((B−A)/(1+((X/C)^D)))) where X is the logarithm of inhibitor concentration and Y is the response.

[1] = tested on: MIA PaCa-2 (KRAS G12C) cells; assay: KRAS_G12C cellular pERK HTRF assay; format: cell-based, human; set-up: G12C_pERK (KRAS_G12C pERK assay IC50): scale not given here; conditions: phospho-ERK1/2 HTRF, 4 hours incubation; for IC50: read-out: G12C_pERK (KRAS_G12C pERK assay IC50)
Procedure: MIA PaCa-2 (KRAS G12C; ATCC® CRL-1420), A427 (KRAS G12D; ATCC® HTB53), HPAF-II (KRAS G12D; ATCC® CRL-1997) and NCI-H838 (KRAS WT; ATCC® CRL-5844) cells are purchased from ATCC and maintained in RPMI 1640 media supplemented with 10% FBS (Gibco/Life Technologies). The cells are plated at 5000 cells per well (8 uL) into Greiner 384-well low volume, flat-bottom, tissue culture treated white plates and incubated overnight at 37° C., 5% CO2. The next morning, test compound stock solutions are diluted in media at 3× the final concentration, and 4 uL are added to the cells. The plate is mixed by gentle rotation for 30 seconds (250 rpm) at room temperature. The cells are incubated with the KRAS G12C and G12D compounds for 4 hours or 2 hours respectively at 37° C., 5% CO2.
4 uL of 4× lysis buffer with blocking reagent (1:25) (Cisbio) are added to each well and plates are rotated gently (300 rpm) for 30 minutes at room temperature. 4 uL per well of Cisbio anti Phospho-ERK 1/2 d2 is mixed with anti Phospho-ERK 1/2 Cryptate (1:1) are added to each well, mixed by rotation and incubated overnight in the dark at room temperature. Plates are read on the Pherastar plate reader at 665 nm and 620 nm wavelengths. IC50 determination is performed by fitting the curve of inhibitor percent inhibition versus the log of the inhibitor concentration using the GraphPad Prism 7 software.

Chain of KRAS G12C (P01116 1-188 isoform P01116-2 G12C): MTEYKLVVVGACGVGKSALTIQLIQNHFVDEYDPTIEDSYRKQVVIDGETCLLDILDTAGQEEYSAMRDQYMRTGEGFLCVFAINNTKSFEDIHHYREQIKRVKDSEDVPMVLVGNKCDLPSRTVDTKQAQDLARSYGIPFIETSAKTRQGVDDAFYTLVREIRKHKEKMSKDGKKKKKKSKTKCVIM

IC50 (KRAS G12C)	IC50 ([1]; Homo sapiens, MIA PaCa-2)	G12C_pERK (KRAS_G12C pERK assay IC50) [1]	IC50 [1]	SMILES
≤ 100 nM	≤ 100 nM	–	–	CC#CC(=O)N1CC[C@H](n2ncc3c(OC[C@@H]4CCCN4C)nc4c(F)c(-c5c(C)c(C)cc6[nH]ncc56)c(Cl)cc4c32)C[C@H]1CC#N (single isomer, unassigned) [Example 78a]
≤ 100 nM	≤ 100 nM	–	–	COC/C=C/C(=O)N1CC[C@H](n2ncc3c(N4CC(C)(N(C)C)C4)nc4c(F)c(-c5cccc6cccc(C#N)c56)c(C)cc4c32)C[C@H]1CC#N (single isomer, unassigned) [Example 61a]
≤ 100 nM	≤ 100 nM	–	–	CN(C)C/C=C/C(=O)N1CC[C@H](n2ncc3c(N4CC(C)(N(C)C)C4)nc4c(F)c(-c5cccc6cccc(Cl)c56)c(Cl)cc4c32)C[C@H]1CC#N [Example 63, 2-((2S,4S)-4-(8-chloro-7-(8-chloronaphthalen-1-yl)-4-(3-(dimethylamino)-3-methylazetidin-1-yl)-6-fluoro-1H-pyrazolo[4,3-c]quinolin-1-yl)-1-((E)-4-(dimethylamino)but-2-enoyl)piperidin-2-yl)acetonitrile]
≤ 100 nM	≤ 100 nM	–	–	Cc1cc2[nH]ncc2c(-c2c(Cl)cc3c(nc(OC[C@@H]4CCCN4C)c4cnn([C@H]5CCN(C(=O)/C=C/CN(C)C)[C@H](CC#N)C5)c43)c2F)c1C (single isomer, unassigned) [Example 80a]
≤ 100 nM	≤ 100 nM	–	–	C=CC(=O)N1CC[C@H](n2ncc3c(OC[C@@H]4CCCN4C)nc4c(F)c(-c5c(C)c(Cl)cc6[nH]ncc56)c(Cl)cc4c32)C[C@H]1CC#N (single isomer, unassigned) [Example 20a]
≤ 100 nM	≤ 100 nM	–	–	C=C(F)C(=O)N1CC[C@H](n2ncc3c(O[C@@H](C)[C@@H]4CCCN4C)nc4c(F)c(-c5cccc6cccc(C#N)c56)c(C)cc4c32)C[C@H]1CC#N (single isomer, unassigned) [Example 56b]
≤ 100 nM	≤ 100 nM	–	–	C=C(F)C(=O)N1CC[C@H](n2ncc3c(N4CC(N(C)C)C4)nc4c(F)c(-c5c(C)c(C)cc6[nH]ncc56)c(Cl)cc4c32)C[C@H]1CC#N (single isomer, unassigned) [Example 73a]
≤ 100 nM	≤ 100 nM	–	–	CC#CC(=O)N1CC[C@H](n2ncc3c(OC[C@@H]4CCCN4C)nc4c(F)c(-c5cccc6cccc(C#N)c56)c(C)cc4c32)C[C@H]1CC#N (single isomer, unassigned) [Example 53a]
≤ 100 nM	≤ 100 nM	–	–	Cc1cc2[nH]ncc2c(-c2c(C)cc3c(nc(O[C@@H](C)[C@@H]4CCCN4C)c4cnn([C@H]5CCN(C(=O)/C=C/CF)[C@H](CC#N)C5)c43)c2F)c1C (single isomer, unassigned) [Example 67b]
≤ 100 nM	≤ 100 nM	–	–	Cc1cc2c(nc(N3CC(C)(N(C)C)C3)c3cnn([C@H]4CCN(C(=O)/C=C/CN(C)C)[C@H](CC#N)C4)c32)c(F)c1-c1cccc2cccc(C#N)c12 (single isomer, unassigned) [Example 62a]
≤ 100 nM	≤ 100 nM	–	–	Cc1cc2c(nc(O[C@@H](C)[C@@H]3CCCN3C)c3cnn([C@H]4CCN(C(=O)/C=C/CF)[C@H](CC#N)C4)c32)c(F)c1-c1cccc2cccc(C#N)c12 (single isomer, unassigned) [Example 55b]

The remaining lines, values behind:

SMILES	IC50 (KRAS G12C)	IC50 ([1]; Homo sapiens, MIA PaCa-2)	G12C_pERK (KRAS_G12C pERK assay IC50) [1]	IC50 [1]
CC#CC(=O)N1CC[C@H](n2ncc3c(N4CC(C)(N(C)C)C4)nc4c(F)c(-c5c(C)c(Cl)cc6[nH]ncc56)c(Cl)cc4c32)C[C@H]1CC#N (single isomer, unassigned) [Example 11a]	≤ 100 nM	≤ 100 nM	–	–
Cc1cc2[nH]ncc2c(-c2c(Cl)cc3c(nc(N4CC(N(C)C)C4)c4cnn([C@H]5CCN(C(=O)/C=C/CN(C)C)[C@H](CC#N)C5)c43)c2F)c1C (single isomer, unassigned) [Example 76a]	≤ 100 nM	≤ 100 nM	–	–
CC#CC(=O)N1CC[C@H](n2ccc3c(OC[C@@H]4CCCN4C)nc4c(F)c(-c5c(C)c(C)cc6[nH]ncc56)c(Cl)cc4c32)C[C@H]1CC#N (single isomer, unassigned) [Example 90a]	≤ 100 nM	≤ 100 nM	–	–
COC/C=C/C(=O)N1CC[C@H](n2ncc3c(N4CC(N(C)C)C4)nc4c(F)c(-c5c(C)c(C)cc6[nH]ncc56)c(Cl)cc4c32)C[C@H]1CC#N (single isomer, unassigned) [Example 75a]	≤ 100 nM	≤ 100 nM	–	–
Cc1c(Cl)cc2[nH]ncc2c1-c1c(Cl)cc2c(nc(N3CC(N(C)C)C3)c3cnn([C@H]4CCN(C(=O)/C=C/CN(C)C)[C@H](CC#N)C4)c32)c1F (single isomer, unassigned) [Example 4a]	≤ 100 nM	≤ 100 nM	–	–
COC/C=C/C(=O)N1CC[C@H](n2ncc3c(N4CC(N(C)C)C4)nc4c(F)c(-c5c(C)c(Cl)cc6[nH]ncc56)c(Cl)cc4c32)C[C@H]1CC#N (single isomer, unassigned) [Example 5a]	≤ 100 nM	≤ 100 nM	–	–
C=C(F)C(=O)N1CC[C@H](n2ncc3c(N4CC(C)(N(C)C)C4)nc4c(F)c(-c5c(C)c(Cl)cc6[nH]ncc56)c(Cl)cc4c32)C[C@H]1CC#N (single isomer, unassigned) [Example 15a]	≤ 100 nM	≤ 100 nM	–	–
C=CC(=O)N1CCC(n2ncc3cnc4c(F)c(-c5cc(O)cc6ccccc56)c(Cl)cc4c32)CC1 [Example 1]	≤ 100 nM	–	††	–
C=CC(=O)N1CCC(n2ncc3c(N4CC(N(C)C)C4)nc4c(F)c(-c5cc(O)cc6ccccc56)c(Cl)cc4c32)CC1 [Example 2, 1-(4-(8-chloro-4-(3-(dimethylamino)azetidin-1-yl)-6-fluoro-7-(3-hydroxynaphthalen-1-yl)-1H-pyrazolo[4,3-c]quinolin-1-yl)piperidin-1-yl)prop-2-en-1-one]	≤ 100 nM	≤ 100 nM	–	–
Cc1cc2[nH]ncc2c(-c2c(C)cc3c(nc(N4CC(C)(N(C)C)C4)c4cnn([C@H]5CCN(C(=O)/C=C/CN(C)C)[C@H](CC#N)C5)c43)c2F)c1C (single isomer, unassigned) [Example 66a]	≤ 100 nM	≤ 100 nM	–	–
C=CC(=O)N1CC[C@H](n2ncc3c(N4CC(N(C)C)C4)nc4c(F)c(-c5cccc(Cl)c5Cl)c(Cl)cc4c32)C[C@H]1CC#N (single isomer, unassigned) [Example 25b]	≤ 100 nM	–	–	≤ 100 nM
Cc1cc2[nH]ncc2c(-c2c(C)cc3c(nc(N4CC(C)(N(C)C)C4)c4cnn([C@H]5CCN(C(=O)/C=C/CF)[C@H](CC#N)C5)c43)c2F)c1C (single isomer, unassigned) [Example 64a]	≤ 100 nM	≤ 100 nM	–	–
C=CC(=O)N1CC[C@H](n2ncc3c(N4CC(N(C)C)C4)nc4c(F)c(-c5c(C)c(Cl)cc6[nH]ncc56)c(Cl)cc4c32)C[C@H]1CC#N (single isomer, unassigned) [Example 3b]	≤ 100 nM	–	–	≤ 100 nM
C=CC(=O)N1CC[C@H](n2ncc3c(N4CC(N(C)C)C4)nc4c(F)c(-c5cccc(Cl)c5Cl)c(Cl)cc4c32)C[C@H]1CC#N (single isomer, unassigned) [Example 25a]	≤ 100 nM	≤ 100 nM	–	–
